The pIC50 is the IC50 on a negative log10 scale, so that one unit is a factor of ten.

Each structure is given as a SMILES string. pIC50: −log10 of the molar value.

From ChEMBL document CHEMBL1137047, “Induction of G2/M cell cycle arrest and apoptosis by a benz[f]indole-4,9-dione analog in cultured human lung (A549) cancer cells” (Bioorg Med Chem Lett, 2004) come the findings set out here.

Common to all, as to format: functional, cell-based
Common to all, as to conditions: Homo sapiens

Test [1] deals with A549. Kind of test: Inhibitory activity against growth of cultured A-549 cell line.
Test [2] deals with Col2. The test can be described thus: inhibitory activity against growth of cultured Col2 cell line.
Test [3] has as its system SNU-638. Kind of test: inhibitory activity against growth of cultured SNU-638 cell line.

In the case of `CCOC(=O)c1c2c(n(C)c1N)C(=O)c1ccccc1C2=O`, the results for the pIC50 in test [1], in test [2] and in test [3] were 6.20, 6.47 and 5.77, respectively.
